Results reported in patent US20220023381A1, “VDAC INHIBITORS FOR TREATING AUTOIMMUNE DISEASES” (NATIONAL INSTITUTE FOR BIOTECHNOLOGY IN THE NEGEV LTD., priority 2018, published 2022).

Columns and labels:
EndoG−/− MEFs = experiment: ISG expression in EndoG−/− MEFs (real-time PCR / western blot); format: cell-based, mouse; settings: VBIT-4 (10 μM), real-time PCR
Method: All MEFs were grown in complete Dulbecco's modified Eagle's medium (DMEM, Corning) supplemented with 10% fetal bovine serum (FBS, Sigma-Aldrich) and 1% penicillin and streptomycin (antibiotics, Gibco) at 37° C. with 5% CO2.
Total RNA was extracted using RNeasy Plus Mini Kit (Qiagen) according to the manufacturer's instructions. The first-strand cDNA was synthesized from 2 μg purified mRNA using Accupower RT PreMix (BioNeer). The reaction mixtures were incubated at 42° C. for 60 min and 94° C. for 5 min. Real-time RT-PCR was performed using the LightCycler 96 system (Roche Life Science) with SYBR Green master mix (Roche). The primers used were as follow (5′-3′): EndoG forward (SEQ ID NO:36), and reverse (SEQ ID NO:37); Cxcl10 forward (SEQ ID NO:38), and reverse (SEQ ID NO:39); GAPDH forward (SEQ ID NO:40), and reverse (SEQ ID NO:41); Ifi44 forward (SEQ ID NO:42), and reverse (SEQ ID NO:43); Ifit1 forward (SEQ ID NO:44), and reverse (SEQ ID NO:45); Ifit3 forward (SEQ ID NO:46), and reverse (SEQ ID NO:47); IFNα4 forward (SEQ ID NO:48), and reverse (SEQ ID NO:49); IFNβ forward (SEQ ID NO:50), and reverse (SEQ ID NO:51); Iigp1 forward (SEQ ID NO:52), and reverse (SEQ ID NO:53); ISG15 forward (SEQ ID NO:54), and reverse (SEQ ID NO:55); Oasl2 forward (SEQ ID NO:56), and reverse (SEQ ID NO:57); Rsad2 forward (SEQ ID NO:58), and reverse (SEQ ID NO:59); USP18 forward (SEQ ID NO:60), and reverse (SEQ ID NO:61); VDAC1 forward (SEQ ID NO:62), and reverse (SEQ ID NO:63). GAPDH was used as an internal standard of mRNA expression, and the ratio of the target gene expression to GAPDH expression was calculated using LightCycler 96 Instrument software (Roche). The quality of real-time RT-PCR results was evaluated based on the melting temperature (Tm) of a DNA fragment and melting curve analysis.

PTP = experiment: Mitochondrial swelling assay (PTP opening); settings: purified mitochondria, Ca2+-induced swelling
Method: The PTP opening was analyzed following mitochondria swelling. Briefly, freshly isolated mitochondria (0.5 mg/ml) were incubated for 2 min at 24° C. with the indicated concentrations of VBIT-4 for Ca^2+-induced mitochondrial swelling assay. Swelling was initiated by the addition of Ca^2+ (0.1 mM) to the sample cuvette. Absorbance changes at 520 nm were monitored every 16 s for 15 min. Cyclosporine A 10 μM) was used as a positive control. […] Ca^2+ accumulation by freshly isolated rat liver mitochondria (0.5 mg/ml) was assayed with the indicated concentrations of VBIT-4 in the presence of […] CaCl2) (containing [^45Ca^2+]), 220 mM mannitol, 70 mM sucrose, 5 mM succinate, 0.15 mM Pi and 15 mM Tris/HCl, pH 7.2. Ca^2+ uptake was terminated by rapid Millipore filtration (0.45 μm).

human PBMCs = experiment: A23187-induced mitochondrial ROS (MitoSOX); format: cell-based; settings: VBIT-4 (5 μM), A23187 (25 μM), 1 h
Method: Cellular cGAMP levels were measured by LC/MS (Agilent Technologies) using 5% perchloric acid extracts of WT and EndoG^−/− MEFs. Intracellular ROS production in MEFs was measured using the oxidative stress indicator CM-H2DCFDA (Invitrogen) with flow cytometry (FACS). Mitochondrial ROS in MEFs was evaluated using the mitochondrial superoxide indicator MitoSOX (Invitrogen) with a confocal microscope (LSM880, Zeiss, and the fluorescence intensity was measured using Zen software (Zeiss). To quantify mitochondrial ROS in human PBMCs, the cells were obtained from heparinized blood using a Ficoll-Paque gradient. The cells were washed with PBS, resuspended in RPMI 1640 medium, and transferred to 96-well plates. Subsequently, the cells were stimulated with calcium ionophore A23187 (25 μM), VBIT-4 (5 μM), and MitoSOX (2 μM) (Life Technologies). After 1 h at 37° C., the fluorescence was measured at 510/595 nm using a microplate reader (Synergy HTX; BIOTEK). Cells without dye were used as the blank control.

Structure (SMILES): O=C(CC(CO)N1CCN(c2ccc(OC(F)(F)F)cc2)CC1)Nc1ccc(Cl)cc1 (stereo not shown) [VBIT-4, N-(4-chlorophenyl)-4-hydroxy-3-(4-(4-(trifluoromethoxy)phenyl)-piperazin-1-yl)butanamide]
- ISG expression (EndoG−/− MEFs): decreased
- PTP opening (PTP): did not prevent
- A23187-induced mitochondrial ROS (human PBMCs; healthy controls): decreased
- A23187-induced mitochondrial ROS (human PBMCs; lupus patients): decreased
